Laboratory results reported in PMC8209153, “Improvement in aqueous solubility of achiral symmetric cyclofenil by modification to a chiral asymmetric analog” (Scientific Reports, 2021).
Converted amounts (≈) assume the structure as drawn.

Legend:
[1] = Membrane permeability by retention on IAM column; assay type: in vitro ADME; settings: IAM.PC.DD2 column, 0.1 M phosphate buffer (pH 6.8) in 60% CH3CN, 1.0 mL/min, 37 °C
Method: Membrane permeability was determined by HPLC on an IAM.PC.DD2 column (Regis Technologies, Inc., 10 μm, 300 Å, 30 mm × 4.6 mm) eluted with mobile phase consisting of 0.1 M phosphate buffer (pH 6.8) and CH3CN (4:6) at a flow rate of 1.0 mL/min, with UV monitoring at 254 nm, 37 °C.
Firstly, we evaluated membrane permeability by using an Immobilized Artificial Membrane (IAM) column, which contains silica gel bearing phosphatidylcholine and widely utilized to predict membrane permeability[31],[32].

[2] = Crystal density (X-ray crystallography); assay type: physicochemical; settings: measured crystal density
[3] = Thermodynamic aqueous solubility of the most stable crystals; assay type: physicochemical; settings: for solubility at 48 h: phosphate buffer/EtOH (6:4), aqueous with cosolvent or surfactant or cyclodextrin, thermodynamic from solid, mixture of 0.067 M phosphate buffer (pH 6.8) and EtOH (6:4), shaken 48 h at 4 °C, most stable crystals; for Fold more soluble than symmetric isomer 6: relative to 6
Method: The crystals were ground with an agate mortar and suspended in a mixture of 0.067 M phosphate buffer (pH 6.8) and EtOH (6:4). The suspension was shaken for 48 h at 4 °C, then filtered through a Millipore Millex-LG filter (0.20 μm). The filtrate was diluted in DMF and subjected to HPLC. The solubility was calculated by the absolute calibration curve method. We used a mixed solvent because the solubility in 0.067 M phosphate buffer (pH 6.8) was too low to allow quantification. EtOH is used clinically as a solubilizer for insoluble drugs such as taxol and pacritaxel. When the solutions were shaken at 37 °C, hydrolysis of the ester moiety occurred, and therefore the suspensions were shaken at 4 °C.

[4] = Hydrolysis of prodrugs without hepatocytes; assay type: in vitro ADME; settings: 50 μM, 2 h, 37 °C
Method: (§1) Test compounds (final 50 μM) in DMSO (final 0.5%) were added to a suspension of human hepatocytes (HMCS1S, Thermo Fisher Scientific) at a density of 1.0×10^6 cells/mL. The cells were incubated at 37 °C in humidified incubator (5% CO2) for 2 h, and then acetonitrile was added to stop the reaction. The mixture was vortexed and centrifuged at 15000 rpm for 10 min. HPLC analysis of the supernatant was performed on an analytical column (ODS reversed-phase column, 5 μm, 4.6 mm x 150 mm) eluted with a mobile phase consisting of H2O and CH3CN at a flow rate of 1.0 mL/min at 37 °C, with UV monitoring at 254 nm. Because some analogs were hydrolyzed in the absence of hepatocytes, we also evaluated the hydrolysis rate without hepatocytes.

[5] = test system: human cryopreserved hepatocytes; experiment: Metabolic rate of prodrugs in human cryopreserved hepatocytes; assay type: in vitro ADME; settings: human hepatocytes 1.0×10^6 cells/mL, 50 μM, 2 h, 37 °C
Method: The metabolic rate of prodrugs was evaluated using human cryopreserved hepatocytes (Table 3). Although the metabolic rate of 3d with a bulky acyl group was decreased, most of the asymmetric structural analogs, including those with improved aqueous solubility (3b, 4a, (R)-4c), were metabolized to the active form as quickly as 1. Thus, we concluded that the chemical modifications applied here had little effect on the metabolic rate.
as §1

LogP = assay type: physicochemical
From the text: LogP values of all analogs were higher than that of 1, as expected. […] The observation that the measured crystal densities of 3b, 4a and (R)-4c were lower than that of 1 supports this idea.

ERβ = target: T1, ERβ (Homo sapiens, UniProt Q92731); experiment: Luciferase reporter gene assay, ERβ antagonistic activity; assay type: cell-based; settings: HEK 293 cells, GAL4N-human ERβ ligand binding domain, with 0.3 nM estradiol, 24 h; mean ± SD
T1 construct: expressed in transfected cells; host or cells: HEK 293 cells
T1 sequence (Q92731 264-498 limits assumed): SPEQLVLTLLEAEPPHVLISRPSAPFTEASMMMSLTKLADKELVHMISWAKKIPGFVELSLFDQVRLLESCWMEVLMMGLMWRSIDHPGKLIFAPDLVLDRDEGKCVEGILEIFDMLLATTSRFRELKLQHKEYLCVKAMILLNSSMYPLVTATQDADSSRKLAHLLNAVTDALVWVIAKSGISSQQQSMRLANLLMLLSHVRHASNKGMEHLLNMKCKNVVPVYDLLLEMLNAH
Method: (§2) HEK 293 cells were cultured in DMEM supplemented with 10% FBS and penicillin and streptomycin at 37 °C in a humidified incubator (5% CO2).
(§3) HEK 293 cells were plated at 20% confluence in a 96-well plate at 24 h prior to transfection. Transfection of plasmids (CMX-GAL4N-human ERα/β ligand binding domain, TK-MH100x4-Luc, CMX-β-galactosidase) was performed by the calcium phosphate coprecipitation method. Test compounds in DMSO (final 0.5%) were added at 24 h after transfection, together with 0.3 nM estradiol. The plate was incubated for 24 h, then luciferase substrate solution was added to each well and luminescence was measured on an EnVision microplate reader. β-Galactosidase was added and the absorbance was measured on the microplate reader with emission detection at 405 nm. Each sample was evaluated in triplicate for two times and the mean value was calculated. A six-point sigmoidal dose-response curve was generated for each compound. The IC50 value for each compound was calculated by Origin software. In Table 4, biological reproducibility is reported as the mean IC50 SD.

ERα = target: T2, ERα (Homo sapiens, UniProt P03372); experiment: Luciferase reporter gene assay, ERα antagonistic activity; assay type: cell-based; settings: HEK 293 cells, GAL4N-human ERα ligand binding domain, with 0.3 nM estradiol, 24 h; mean ± SD
T2 construct: expressed in transfected cells; host or cells: HEK 293 cells
T2 sequence (P03372 311-547 limits assumed): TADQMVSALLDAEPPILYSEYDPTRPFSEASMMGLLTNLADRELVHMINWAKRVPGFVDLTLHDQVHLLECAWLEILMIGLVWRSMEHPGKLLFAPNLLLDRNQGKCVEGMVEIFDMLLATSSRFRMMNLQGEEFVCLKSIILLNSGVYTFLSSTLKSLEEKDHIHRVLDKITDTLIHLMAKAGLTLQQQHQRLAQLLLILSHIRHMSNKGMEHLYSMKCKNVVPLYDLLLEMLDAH
Method: as §2, §3

[6] = Aqueous solubility in 0.067 M phosphate buffer pH 7.4; assay type: physicochemical
Method: Cyclofenil (1) is an antagonist of estrogen receptors (ER) α and β that is clinically used to treat menstrual disturbances, anovulatory infertility and menopausal symptoms (Fig. 1). However, 1 has poor aqueous solubility (< 1 μg/mL in 0.067 M phosphate buffer pH 7.4). We considered that this low solubility might be due to the symmetric structure (σ = 2, point group: C2v), and we hypothesized that chemical modification of 1 to an asymmetric structure (point group: Cs and C1) would improve the aqueous solubility. To investigate the relationship between molecular shape (symmetry) and aqueous solubility, we focused on a small chemical modification, that is, introduction of a hydrophobic alkyl group. Cyclofenil (1) is a prodrug that is hydrolyzed by esterases after administration, and the active form is diol 2. Therefore, we initially considered that replacement of an acetyl group on 1 with a different acyl group (3a–d) might improve the aqueous solubility without loss of biological activity. As a second approach, we designed methylated analogs 4a–c substituted at the 2-/3-position of the phenyl group or the 3-position of the cyclohexyl group, respectively. We also designed symmetrical analogs 5a–c and 6 for comparison.

[7] = phosphate buffer (pH 6.8)/EtOH (6:4)

Row | Structure (SMILES) | Crystal density [2] [g/mL] | Fold more soluble than 1 ([3]; relative to cyclofenil (1), phosphate buffer (pH 6.8)/EtOH (6:4)) [fold] | IC50 (ERβ) [nM] | IC50 (ERα) [nM] | solubility [6] [µg/mL] | Retention time on IAM column [1] [min] | solubility at 48 h [3] [µg/mL] | Fold more soluble than symmetric isomer 6 [3, 7] [fold] | Hydrolysis rate without hepatocytes [4] [%] | melting point [°C] | Hydrolysis rate with hepatocytes [5] [%] | logP (LogP) | Fold more soluble than symmetric isomer 5a ([3]; relative to 5a, phosphate buffer (pH 6.8)/EtOH (6:4)) [fold]
1 | CC(=O)Oc1ccc(C(=C2CCC[C@@H](C)C2)c2ccc(OC(C)=O)cc2)cc1 [(R)-4c, (R)-((3-Methylcyclohexylidene)methylene)bis(4,1-phenylene)diacetate] | 1.227 | 3.6 | – | – | – | 3.93 | 27.8 (≈ 73.5 µM) | 7.7 | 13.8 | 92 | 100 | 5.34 | –
2 | C[C@@H]1CCCC(=C(c2ccc(O)cc2)c2ccc(O)cc2)C1 [(R)-13a, (R)-4,4’-((3-Methylcyclohexylidene)methylene)diphenol] | – | – | 4.5 ± 0.57 | 16 ± 0.71 | – | – | – | – | – | – | – | – | –
3 | CC(=O)Oc1ccc(C(=C2CCCCC2)c2ccc(OC(C)=O)cc2)cc1 [Compound 1, cyclofenil] | 1.268 | – | – | – | < 1 | 3.15 | 7.76 (≈ 21.3 µM) | – | 14.8 | – | 100 | 4.91 | –
4 | Oc1ccc(C(=C2CCCCC2)c2ccc(O)cc2)cc1 [Compound 2, Bis(4-hydroxyphenyl)methylenecyclohexane, reference compound] | – | – | 4.5 ± 0.99 | 13 ± 7.5 | – | – | – | – | – | – | – | – | –
5 | CCC(=O)Oc1ccc(C(=C2CCCCC2)c2ccc(OC(C)=O)cc2)cc1 [Compound 3a, 4-((4-Acetoxyphenyl)(cyclohexylidene)methyl)phenylpropionate] | – | – | – | – | – | 4.22 | 3.38 (≈ 8.93 µM) | – | 15.8 | 132.8 | 100 | 5.48 | –
6 | CCCC(=O)Oc1ccc(C(=C2CCCCC2)c2ccc(OC(C)=O)cc2)cc1 [Compound 3b, 4-((4-Acetoxyphenyl)(cyclohexylidene)methyl)phenylbutyrate] | 1.236 | – | – | – | – | 5.97 | 10.8 (≈ 27.5 µM) | – | 6.3 | 69 | 92.1 | 6 | 17.3
7 | CC(=O)Oc1ccc(C(=C2CCCCC2)c2ccc(OC(=O)C(C)C)cc2)cc1 [Compound 3c, 4-((4-Acetoxyphenyl)(cyclohexylidene)methyl)phenylisobutyrate] | – | – | – | – | – | 5.93 | 0.719 (≈ 1.83 µM) | – | 0 | 136.5 | 94.5 | 6.01 | –
8 | CC(=O)Oc1ccc(C(=C2CCCCC2)c2ccc(OC(=O)C(C)(C)C)cc2)cc1 [Compound 3d, 4-((4-Acetoxyphenyl)(cyclohexylidene)methyl)phenylpivalate] | – | – | – | – | – | 8.44 | 2.25 (≈ 5.53 µM) | – | 0 | 127 | 77.7 | 6.5 | –
9 | CC(=O)Oc1ccc(C(=C2CCCCC2)c2ccc(OC(C)=O)c(C)c2)cc1 [Compound 4a, 4-((4-Acetoxy-3-methylphenyl)(cyclohexylidene)methyl)phenylacetate] | – | – | – | – | – | 3.72 | 10.3 (≈ 27.2 µM) | 2.9 | 0 | 114 | 100 | 5.26 | –
10 | CC(=O)Oc1ccc(C(=C2CCCCC2)c2ccc(OC(C)=O)cc2C)cc1 [Compound 4b, 4-((4-Acetoxy-2-methylphenyl)(cyclohexylidene)methyl)phenylacetate] | – | – | – | – | – | – | 23.6 (≈ 62.4 µM) | 6.5 | – | 99.9 | – | 5.12 | –
11 | CCC(=O)Oc1ccc(C(=C2CCCCC2)c2ccc(OC(=O)CC)cc2)cc1 [Compound 5a, (Cyclohexylidenemethylene)bis(4,1-phenylene)dipropionate] | – | – | – | – | – | – | 0.622 (≈ 1.58 µM) | – | – | 139 | – | 6.02 | –
12 | CC(C)C(=O)Oc1ccc(C(=C2CCCCC2)c2ccc(OC(=O)C(C)C)cc2)cc1 [Compound 5c, (Cyclohexylidenemethylene)bis(4,1-phenylene)bis(2-methylpropanoate)] | – | – | – | – | – | – | 0.0811 (≈ 0.193 µM) | – | – | 129 | – | 7.16 | –
13 | CC(=O)Oc1ccc(C(=C2CCC(C)CC2)c2ccc(OC(C)=O)cc2)cc1 (stereo not shown) [Compound 6, ((4-Methylcyclohexylidene)methylene)bis(4,1-phenylene)diacetate] | 1.243 | – | – | – | – | – | 3.61 (≈ 9.54 µM) | – | – | 137 | – | 5.41 | –

The next lines start with results.

Row | Crystal density [2] [g/mL] | Fold more soluble than 1 ([3]; relative to cyclofenil (1), phosphate buffer (pH 6.8)/EtOH (6:4)) [fold] | IC50 (ERβ) [nM] | IC50 (ERα) [nM] | solubility [6] [µg/mL] | Structure (SMILES) | Retention time on IAM column [1] [min] | solubility at 48 h [3] [µg/mL] | Fold more soluble than symmetric isomer 6 [3, 7] [fold] | Hydrolysis rate without hepatocytes [4] [%] | melting point [°C] | Hydrolysis rate with hepatocytes [5] [%] | logP (LogP) | Fold more soluble than symmetric isomer 5a ([3]; relative to 5a, phosphate buffer (pH 6.8)/EtOH (6:4)) [fold]
14 | 1.244 | – | – | – | – | CCCC(=O)Oc1ccc(C(=C2CCCCC2)c2ccc(OC(=O)CCC)cc2)cc1 [Compound 5b, (Cyclohexylidenemethylene)bis(4,1-phenylene)dibutyrate] | – | 0.964 (≈ 2.29 µM) | – | – | 80.9 | – | 7.08 | –
15 | – | – | 51 ± 40 | 120 ± 7.1 | – | Cc1cc(C(=C2CCCCC2)c2ccc(O)cc2)ccc1O [Compound 10a, 4-(Cyclohexylidene(4-hydroxyphenyl)methyl)-2-methylphenol] | – | – | – | – | – | – | – | –
